Laboratory results as given in PubChem BioAssay AID1963870 (Molecular Pharmacology Branch, DTP, NCI, 2024).

System: 292921-168-R-J2-PDC KRAS tumor spheroid viability
Assay: Anticancer human tumor 292921-168-R-J2-PDC patient-derived pancreatic carcinoma cell line growth inhibition [KRAS2]
Details: spheroids with HUVEC and MSC; for IC50: curve of first compound; for viability, T/C: stronger effect = lower value
Outline: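 Combination screen of spheroid viability in tumor-cell co-cultures with endothelial (HUVEC) and mesenchymal stem cell stroma. Each agent was tested in half-log dilutions, topping at clinical Cmax or at 10 microM without a known Cmax.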

[1] = second compound 0.1 µM, first compound 0.0316 µM
[2] = second compound 0.1 µM, first compound 0.1 µM
[3] = second compound 0.1 µM, first compound 0.316 µM
[4] = second compound 0.1 µM, first compound 1 µM
[5] = second compound 0.1 µM, first compound 3.16 µM
[6] = second compound 0.1 µM, first compound 10 µM
[7] = second compound 0.316 µM, first compound 0.0316 µM
[8] = second compound 0.316 µM, first compound 0.1 µM
[9] = second compound 0.316 µM, first compound 0.316 µM
[10] = second compound 0.316 µM, first compound 1 µM
[11] = second compound 0.316 µM, first compound 3.16 µM
[12] = second compound 0.316 µM, first compound 10 µM
[13] = second compound 1 µM, first compound 0.0316 µM
[14] = second compound 1 µM, first compound 0.1 µM
[15] = second compound 1 µM, first compound 0.316 µM
[16] = second compound 1 µM, first compound 1 µM
[17] = second compound 1 µM, first compound 3.16 µM
[18] = second compound 1 µM, first compound 10 µM
[19] = second compound 3.16 µM, first compound 0.0316 µM
[20] = second compound 3.16 µM, first compound 0.1 µM
[21] = second compound 3.16 µM, first compound 0.316 µM
[22] = second compound 3.16 µM, first compound 1 µM
[23] = second compound 3.16 µM, first compound 3.16 µM
[24] = second compound 3.16 µM, first compound 10 µM
[25] = second compound 10 µM, first compound 0.0316 µM
[26] = second compound 10 µM, first compound 0.1 µM
[27] = second compound 10 µM, first compound 0.316 µM
[28] = second compound 10 µM, first compound 1 µM
[29] = second compound 10 µM, first compound 3.16 µM
[30] = second compound 10 µM, first compound 10 µM
[31] = second compound 0.1 µM, first compound 0.01 µM
[32] = second compound 0.316 µM, first compound 0.01 µM
[33] = second compound 1 µM, first compound 0.01 µM
[34] = second compound 3.16 µM, first compound 0.01 µM
[35] = second compound 10 µM, first compound 0.01 µM
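Note: drug exposure lasted seven days after spheroids formed for three days.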
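Throughout, for viability, T/C: percent of DMSO vehicle control viability which is 100%.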

| Compound | IC50 (second compound 0.1 µM) [nM] | IC50 (second compound 0.316 µM) [nM] | IC50 (second compound 1 µM) [nM] | IC50 (second compound 3.16 µM) [nM] | IC50 (second compound 10 µM) [nM] | viability, T/C [1] [%] | viability, T/C [2] [%] | viability, T/C [3] [%] | viability, T/C [4] [%] | viability, T/C [5] [%] | viability, T/C [7] [%] | viability, T/C [8] [%] | viability, T/C [9] [%] | viability, T/C [10] [%] | viability, T/C [13] [%] | viability, T/C [14] [%] | viability, T/C [19] [%] | viability, T/C [20] [%] | viability, T/C [25] [%] | viability, T/C [26] [%] | other results |
| --- | --- | --- | --- | --- | --- | --- | --- | --- | --- | --- | --- | --- | --- | --- | --- | --- | --- | --- | --- | --- | --- |
| COc1cc(Nc2ncc3c(n2)-c2ccc(Cl)cc2C(c2c(F)cccc2OC)=NC3)ccc1C(=O)O + C=CC(=O)N1CCN(c2nc(=O)n(-c3c(C)ccnc3C(C)C)c3nc(-c4c(O)cccc4F)c(F)cc23)C(C)C1 | < 31.6 | < 31.6 | < 31.6 | < 31.6 | < 31.6 | 33.5 | 34.2 | 41.3 | 40.8 | 34.8 | 35.9 | 33.3 | 37.4 | 40.2 | 41.8 | 35.6 | 36.8 | 31.5 | 22.9 | 30.9 | viability, T/C [6]: 26.4%; viability, T/C [11]: 40.3%; viability, T/C [12]: 29.9%; viability, T/C [15]: 40.1%; viability, T/C [16]: 39.4%; viability, T/C [17]: 32.3%; viability, T/C [18]: 30.6%; viability, T/C [21]: 34.8%; viability, T/C [22]: 38%; viability, T/C [23]: 35.2%; viability, T/C [24]: 29.5%; viability, T/C [27]: 35.2%; viability, T/C [28]: 34.5%; viability, T/C [29]: 31.8%; viability, T/C [30]: 30% |
| COc1cc(Nc2ncc3c(n2)-c2ccc(Cl)cc2C(c2c(F)cccc2OC)=NC3)ccc1C(=O)O + CC1OCC2(CCN(c3cnc(Sc4ccnc(N)c4Cl)c(N)n3)CC2)C1N | < 31.6 | < 31.6 | < 31.6 | < 31.6 | < 31.6 | 22.8 | 21.9 | 22.8 | 22.3 | 17.3 | 21.1 | 18.9 | 22.8 | 19.9 | 18.3 | 15.5 | 18.1 | 16.4 | 16 | 16.7 | viability, T/C [6]: 14.1%; viability, T/C [11]: 16.8%; viability, T/C [12]: 10.6%; viability, T/C [15]: 18.5%; viability, T/C [16]: 15.5%; viability, T/C [17]: 13.6%; viability, T/C [18]: 10.8%; viability, T/C [21]: 16.9%; viability, T/C [22]: 14.9%; viability, T/C [23]: 12.8%; viability, T/C [24]: 10.2%; viability, T/C [27]: 16.1%; viability, T/C [28]: 15.7%; viability, T/C [29]: 14%; viability, T/C [30]: 10.3% |
| CC(=O)OC12COC1CC(O)C1(C)C(=O)C(O)C3=C(C)C(OC(=O)C(O)C(NC(=O)OC(C)(C)C)c4ccccc4)CC(O)(C(OC(=O)c4ccccc4)C21)C3(C)C (stereo not given) + C=CC(=O)N1CCN(c2nc(=O)n(-c3c(C)ccnc3C(C)C)c3nc(-c4c(O)cccc4F)c(F)cc23)C(C)C1 | < 10 | < 10 | < 10 | < 10 | < 10 | 15.4 | 14.2 | 12.3 | 14.5 | 17.3 | 17.1 | 13 | 13.1 | 13.7 | 17.5 | 14.9 | 18.2 | 16.9 | 18.4 | 16.6 | viability, T/C [31]: 14.6%; viability, T/C [32]: 12.9%; viability, T/C [11]: 18.3%; viability, T/C [33]: 17.1%; viability, T/C [15]: 12.9%; viability, T/C [16]: 14.4%; viability, T/C [17]: 19.1%; viability, T/C [34]: 18.1%; viability, T/C [21]: 15.7%; viability, T/C [22]: 16.1%; viability, T/C [23]: 17.9%; viability, T/C [35]: 20.5%; viability, T/C [27]: 15.3%; viability, T/C [28]: 15.7%; viability, T/C [29]: 17.2% |
| CN(C)C/C=C/C(=O)Nc1cc2c(Nc3ccc(F)c(Cl)c3)ncnc2cc1O[C@H]1CCOC1 + CC1OCC2(CCN(c3cnc(Sc4ccnc(N)c4Cl)c(N)n3)CC2)C1N | > 100 | 0.889 | > 100 | < 0.316 | > 100 | 57.5 | 57.4 | – | – | – | 52.3 | 46.1 | – | – | 93 | 79.8 | 31.2 | 33.2 | 91.5 | 85.5 | viability, T/C (second compound 0.1 µM, first compound 0.000316 µM): 82.2%; viability, T/C (second compound 0.1 µM, first compound 0.001 µM): 73.3%; viability, T/C (second compound 0.1 µM, first compound 0.00316 µM): 60.9%; viability, T/C [31]: 64.3%; viability, T/C (second compound 0.316 µM, first compound 0.000316 µM): 53.5%; viability, T/C (second compound 0.316 µM, first compound 0.001 µM): 48.3%; viability, T/C (second compound 0.316 µM, first compound 0.00316 µM): 46.9%; viability, T/C [32]: 45.9%; viability, T/C (second compound 1 µM, first compound 0.000316 µM): 92%; viability, T/C (second compound 1 µM, first compound 0.001 µM): 78%; viability, T/C (second compound 1 µM, first compound 0.00316 µM): 94%; viability, T/C [33]: 88.6%; viability, T/C (second compound 3.16 µM, first compound 0.000316 µM): 23.2%; viability, T/C (second compound 3.16 µM, first compound 0.001 µM): 25.3%; viability, T/C (second compound 3.16 µM, first compound 0.00316 µM): 28.8%; viability, T/C [34]: 29.8%; viability, T/C (second compound 10 µM, first compound 0.000316 µM): 50.8%; viability, T/C (second compound 10 µM, first compound 0.001 µM): 75.5%; viability, T/C (second compound 10 µM, first compound 0.00316 µM): 82.6%; viability, T/C [35]: 88.3% |
